Legend:
A-549 = test: Inhibition of cells growth by colorimetric (SRB) assay, A-549; conditions: for GI50 / CC50: Homo sapiens, A549, 48 h; for GI50: read-out: GI50 A-549, SRB assay, 48 hours exposure; for CC50: read-out: LC50 A-549, SRB assay, 48 hours exposure; for TGI A-549: SRB assay, 48 hours exposure
Text: (§1) The finality of these assays is to interrupt the growth of a “in vitro” tumor cell culture by means a continued exhibition of the cells to the sample to be testing.
(§2) This form of the assay employs 96 well cell culture microplates of 9 mm diameter (Faircloth, 1988; Mosmann, 1983). Most of the cell lines are obtained from American Type Culture Collection (ATCC) derived from different human cancer types.
(§3) Cells are maintained in RPMI 1640 10% FBS, supplemented with 0.1 g/l penicillin and 0.1 g/l streptomycin sulphate and then incubated at 37° C., 5% CO2 and 98% humidity. For the experiments, cells were harvested from subconfluent cultures using trypsin and resuspended in fresh medium before plating.
(§4) Cells are seeded in 96 well microtiter plates, at 5×10^3 cells per well in aliquots of 195 μl medium, and they are allowed to attach to the plate surface by growing in drug free medium for 18 hours. Afterward, samples are added in aliquots of 5 μl in a ranging from 10 to 10^−8 μg/ml, dissolved in DMSO/EtOH/PBS (0.5:0.5:99). After 48 hours exposure, the antitumor effect are measured by the SRB methodology: cells are fixed by adding 50 μl of cold 50% (wt/vol) trichloroacetic acid (TCA) and incubating for 60 minutes at 4° C. Plates are washed with deionized water and dried. One hundred μl of SRB solution (0.4% wt/vol in 1% acetic acid) is added to each microtiter well and incubated for 10 minutes at room temperature. Unbound SRB is removed by washing with 1% acetic acid. Plates are air dried and bound stain is solubilized with Tris buffer. Optical densities are read on a automated spectrophotometric plate reader at a single wavelength of 490 nm.
(§5) The values for mean +/−SD of data from triplicate wells are calculated. Some parameters for cellular responses can be calculated: GI=growth inhibition, TGI=total growth inhibition (cytostatic effect) and LC=cell killing (cytotoxic effect).

HT-29 = test: Inhibition of cells growth by colorimetric (SRB) assay, HT-29; conditions: for GI50 / CC50: Homo sapiens, HT-29, 48 h; for GI50: read-out: GI50 HT-29, SRB assay, 48 hours exposure; for CC50: read-out: LC50 HT-29, SRB assay, 48 hours exposure; for TGI HT-29: SRB assay, 48 hours exposure
Text: as §1, §2, §3, §4, §5

Row | Compound | GI50 (A-549) [µM] | GI50 (HT-29) [µM] | CC50 (A-549) [µM] | TGI A-549 (A-549) | CC50 (HT-29) [µM] | TGI HT-29 (HT-29)
1 | CSc1nccc(-c2c3cccnc3n3c(SC)nccc23)n1 [Compound 9] | 5.9 | 9.16 | 29.5 | 1.18E−05 | 25.7 | 2.57E−05
2 | CSc1nccc(-c2c3cc4ccccc4nc3n3c(SC)nccc23)n1 [Compound 17a] | ≥ 25.7 | ≥ 25.7 | 129 | 7.71E−05 | 129 | 7.71E−05
3 | CSc1nccc(-c2c3c(OCc4ccccc4)ccnc3n3c(SC)nccc23)n1 [Compound 52] | 5.81 | 5.36 | 15.7 | 9.56E−06 | 15.7 | 9.20E−06

Second part, led by results:

Row | GI50 (A-549) [µM] | GI50 (HT-29) [µM] | Compound | CC50 (A-549) [µM] | TGI A-549 (A-549) | CC50 (HT-29) [µM] | TGI HT-29 (HT-29)
4 | 7.16 | 7.16 | COc1ccc2nc3c(cc2c1)c(-c1ccnc(SC)n1)c1ccnc(SC)n13 [Compound 17b] | 19.1 | 1.19E−05 | 19.1 | 1.19E−05
5 | 0.85 | 2.83 | CSc1nccc(-c2c3ccc(C)nc3n3c(SC)nccc23)n1 [Compound 22] | 22.7 | 2.27E−06 | 19.8 | 8.50E−06
6 | 0.649 | 0.974 | CSc1nccc(-c2c3cccnc3n3c(N)nccc23)n1 [Compound 25] | ≥ 162 | 3.25E−07 | ≥ 162 | 9.74E−07
7 | 109 | 109 | c1ccc(CNc2nccc(-c3c4cccnc4n4c(NCc5ccccc5)nccc34)n2)cc1 [Compound 28] | 109 | 1.09E−04 | 109 | 1.09E−04
